Reference: ChEMBL document CHEMBL4266014, “Development of Hybrid Phospholipid Mimics as Effective Agonists for Liver Receptor Homologue-1” (ACS Med Chem Lett, 2018)
Active and inactive are the calls of the source. The calls are words filed in the database; no cut-off is given here.

Biological target: Nuclear receptor subfamily 5 group A member 2 (Homo sapiens) (UniProt O00482)
Experiment: Agonist activity at recombinant full length human LRH1 expressed in HeLa cells up to 30 uM after 24 hrs by dual-glo luciferase reporter gene assay
Assay type: cell-based

Nuclear receptor subfamily 5 group A member 2 (Homo sapiens), sequence (O00482 whole entry): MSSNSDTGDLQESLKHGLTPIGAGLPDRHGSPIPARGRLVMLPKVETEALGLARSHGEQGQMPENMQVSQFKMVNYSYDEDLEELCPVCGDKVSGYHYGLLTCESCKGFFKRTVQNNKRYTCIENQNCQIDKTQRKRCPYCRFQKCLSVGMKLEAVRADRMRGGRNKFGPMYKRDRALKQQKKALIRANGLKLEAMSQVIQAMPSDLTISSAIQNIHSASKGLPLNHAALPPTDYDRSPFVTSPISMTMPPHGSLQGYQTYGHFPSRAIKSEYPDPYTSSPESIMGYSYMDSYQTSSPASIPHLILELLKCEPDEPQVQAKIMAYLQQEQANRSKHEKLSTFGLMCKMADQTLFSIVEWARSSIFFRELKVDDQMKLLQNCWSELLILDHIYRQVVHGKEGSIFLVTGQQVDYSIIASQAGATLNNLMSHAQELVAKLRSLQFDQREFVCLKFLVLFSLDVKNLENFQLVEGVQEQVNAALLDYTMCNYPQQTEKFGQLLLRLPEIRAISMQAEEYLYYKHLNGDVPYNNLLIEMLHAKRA

Row | SMILES | Activity
1 | C=C(c1ccccc1)[C@@]12CC[C@@H](O)[C@@H]1CC(CCCCCCC(=O)O)=C2c1ccccc1 (relative stereo) | inactive
2 | C=C(c1ccccc1)[C@@]12CC[C@@H](O)[C@@H]1CC(CCCC(=O)O)=C2c1ccccc1 (relative stereo) | inactive
3 | C=C(c1ccccc1)[C@@]12CC[C@@H](O)[C@@H]1CC(CCCCCCCCOP(=O)([O-])OCC[N+](C)(C)C)=C2c1ccccc1 | inactive
4 | C=C(c1ccccc1)[C@@]12CC[C@@H](O)[C@@H]1CC(CCCCCCCOP(=O)([O-])OCC[N+](C)(C)C)=C2c1ccccc1 | inactive
5 | C=C(c1ccccc1)[C@@]12CC[C@@H](O)[C@@H]1CC(CCCCCCOP(=O)([O-])OCC[N+](C)(C)C)=C2c1ccccc1 | inactive

The next lines start with the values.

Row | Activity | SMILES
6 | inactive | C=C(c1ccccc1)[C@@]12CC[C@@H](O)[C@@H]1CC(CCCCCC(=O)O)=C2c1ccccc1 (relative stereo)
7 | inactive | C=C(c1ccccc1)[C@@]12CC[C@@H](O)[C@@H]1CC(CCCCC(=O)O)=C2c1ccccc1
